Data taken from patent publication US8030443B2, “Squamous cell carcinoma antigen-derived peptide binding to HLA-A24 molecule” (Kurume University, priority 2005, dated 2011).

Test system: peptide-specific IgG in sera of cancer patients and healthy donors
Assay: Measurement of anti-peptide IgG in plasma by LUMINEX multiplexed flow cytometric assay
Type: binding, human
Description: The levels of anti-peptide immunoglobulin G (IgG) were measured by the LUMINEX™ system (multiplexed flow cytometric assay) as previously reported (Komatsu N, Shichijo S, Nakagawa M, Itoh K. New multiplexed flow cytometric assay to measure anti-peptide antibody: a novel tool for monitoring immune responses to peptides used for immunization. Scand J Clin Lab Invest 2004; 64:1-11). In brief, plasma was incubated with 25 μl of peptide-coupled color-coded beads for 2 hr at room temperature on a plate shaker. After incubation, the mixture was washed with a vacuum manifold apparatus and incubated with 100 μl of biotinylated goat anti-human IgG (γ chain-specific)(BA-3080, Vector Laboratories, Burlingame, Calif., USA) for 1 h at room temperature. The plate was then washed, followed by the addition of 100 μl of streptavidin-PE (S-866, Molecular Probes, Eugene, Oreg., USA) into wells, and was incubated for 30 min at room temperature on a plate shaker. The bound beads were washed three times followed by the addition of 100 μl of Tween-PBS into each well. Fifty μl of sample was detected using the LUMINEX™ system (multiplexed flow cytometric assay). To confirm the specificity of IgG to a SCCA peptide, sample plasma was cultured in plates coated with a corresponding SCCA peptide, or with an irrelevant SCCA peptide. After the operation was repeated three times, the levels of the corresponding SCCA peptide-specific IgG in the resulting supernatant were determined by the LUMINEX™ system (multiplexed flow cytometric assay).
These 9 SCCA-derived peptides were screened based on their ability to be recognized by IgG in cancer patients. Peptide-specific IgG was measured by a multiplexed flow cytometric assay (LUMINEX™ (multiplexed flow cytometric assay)). The plasma samples were derived from 35 uterine cervical SCC patients, 10 breast adenocarcinoma patients, 10 pancreatic adenocarcinoma patients, 10 gastric adenocarcinoma, and 6 colon adenocarcinoma patients. The level of fluorescence intensity was judged to be significant when exceeded 100 at an 1/100 dilution.

EFHCNHPFL (SCCA 362-370 peptide) [SCCA-derived peptide, position 362-370]
Total: healthy donors with significant peptide-reactive IgG / donors tested (10 healthy donors, significant when fluorescence intensity exceeded 100 at 1/100 dilution): 1/10 | Total: cancer patients with significant peptide-reactive IgG / patients tested (71 cancer patients, significant when fluorescence intensity exceeded 100 at 1/100 dilution): 10/71 | Fluorescence intesity (serum of Breast Ca. patient #36, 1:100 dilution): 10 | Fluorescence intesity (serum of Breast Ca. patient #37, 1:100 dilution): 24 | Fluorescence intesity (serum of Breast Ca. patient #38, 1:100 dilution): 8 | Fluorescence intesity (serum of Breast Ca. patient #39, 1:100 dilution): 11 | Fluorescence intesity (serum of Breast Ca. patient #40, 1:100 dilution): 7 | Fluorescence intesity (serum of Breast Ca. patient #41, 1:100 dilution): 215 | Fluorescence intesity (serum of Breast Ca. patient #42, 1:100 dilution): 19 | Fluorescence intesity (serum of Breast Ca. patient #43, 1:100 dilution): 10 | Fluorescence intesity (serum of Breast Ca. patient #44, 1:100 dilution): 0 | Fluorescence intesity (serum of Breast Ca. patient #45, 1:100 dilution): 20 | Fluorescence intesity (serum of Colon Ca. patient #66, 1:100 dilution): 0 | Fluorescence intesity (serum of Colon Ca. patient #67, 1:100 dilution): 0 | Fluorescence intesity (serum of Colon Ca. patient #68, 1:100 dilution): 0 | Fluorescence intesity (serum of Colon Ca. patient #69, 1:100 dilution): 0 | Fluorescence intesity (serum of Colon Ca. patient #70, 1:100 dilution): 1 | Fluorescence intesity (serum of Colon Ca. patient #71, 1:100 dilution): 19 | Fluorescence intesity (serum of Gastric Ca. patient #56, 1:100 dilution): 0 | Fluorescence intesity (serum of Gastric Ca. patient #57, 1:100 dilution): 0 | Fluorescence intesity (serum of Gastric Ca. patient #58, 1:100 dilution): 6 | Fluorescence intesity (serum of Gastric Ca. patient #59, 1:100 dilution): 10 | Fluorescence intesity (serum of Gastric Ca. patient #60, 1:100 dilution): 0 | Fluorescence intesity (serum of Gastric Ca. patient #61, 1:100 dilution): 1 | Fluorescence intesity (serum of Gastric Ca. patient #62, 1:100 dilution): 0 | Fluorescence intesity (serum of Gastric Ca. patient #63, 1:100 dilution): 0 | Fluorescence intesity (serum of Gastric Ca. patient #64, 1:100 dilution): 0 | Fluorescence intesity (serum of Gastric Ca. patient #65, 1:100 dilution): 0 | Fluorescence intesity (serum of Healthy Donor #1, 1:100 dilution): 0 | Fluorescence intesity (serum of Healthy Donor #2, 1:100 dilution): 37 | Fluorescence intesity (serum of Healthy Donor #3, 1:100 dilution): 0 | Fluorescence intesity (serum of Healthy Donor #4, 1:100 dilution): 0 | Fluorescence intesity (serum of Healthy Donor #5, 1:100 dilution): 0 | Fluorescence intesity (serum of Healthy Donor #6, 1:100 dilution): 0 | Fluorescence intesity (serum of Healthy Donor #7, 1:100 dilution): 0 | Fluorescence intesity (serum of Healthy Donor #8, 1:100 dilution): 283 | Fluorescence intesity (serum of Healthy Donor #9, 1:100 dilution): 29 | Fluorescence intesity (serum of Healthy Donor #10, 1:100 dilution): 0 | Fluorescence intesity (serum of Pancreas Ca. patient #46, 1:100 dilution): 0 | Fluorescence intesity (serum of Pancreas Ca. patient #47, 1:100 dilution): 1 | Fluorescence intesity (serum of Pancreas Ca. patient #48, 1:100 dilution): 339 | Fluorescence intesity (serum of Pancreas Ca. patient #49, 1:100 dilution): 0 | Fluorescence intesity (serum of Pancreas Ca. patient #50, 1:100 dilution): 0 | Fluorescence intesity (serum of Pancreas Ca. patient #51, 1:100 dilution): 0 | Fluorescence intesity (serum of Pancreas Ca. patient #52, 1:100 dilution): 104 | Fluorescence intesity (serum of Pancreas Ca. patient #53, 1:100 dilution): 0 | Fluorescence intesity (serum of Pancreas Ca. patient #54, 1:100 dilution): 6 | Fluorescence intesity (serum of Pancreas Ca. patient #55, 1:100 dilution): 0 | Fluorescence intesity (serum of Uterine cervical Ca. patient #1, 1:100 dilution): 0 | Fluorescence intesity (serum of Uterine cervical Ca. patient #2, 1:100 dilution): 0 | Fluorescence intesity (serum of Uterine cervical Ca. patient #3, 1:100 dilution): 0 | Fluorescence intesity (serum of Uterine cervical Ca. patient #4, 1:100 dilution): 0 | Fluorescence intesity (serum of Uterine cervical Ca. patient #5, 1:100 dilution): 3 | Fluorescence intesity (serum of Uterine cervical Ca. patient #6, 1:100 dilution): 611 | Fluorescence intesity (serum of Uterine cervical Ca. patient #7, 1:100 dilution): 11 | Fluorescence intesity (serum of Uterine cervical Ca. patient #8, 1:100 dilution): 49 | Fluorescence intesity (serum of Uterine cervical Ca. patient #9, 1:100 dilution): 90 | Fluorescence intesity (serum of Uterine cervical Ca. patient #10, 1:100 dilution): 15 | Fluorescence intesity (serum of Uterine cervical Ca. patient #11, 1:100 dilution): 28 | Fluorescence intesity (serum of Uterine cervical Ca. patient #12, 1:100 dilution): 37 | Fluorescence intesity (serum of Uterine cervical Ca. patient #13, 1:100 dilution): 25 | Fluorescence intesity (serum of Uterine cervical Ca. patient #14, 1:100 dilution): 17 | Fluorescence intesity (serum of Uterine cervical Ca. patient #15, 1:100 dilution): 106 | Fluorescence intesity (serum of Uterine cervical Ca. patient #16, 1:100 dilution): 191 | Fluorescence intesity (serum of Uterine cervical Ca. patient #17, 1:100 dilution): 56 | Fluorescence intesity (serum of Uterine cervical Ca. patient #18, 1:100 dilution): 50 | Fluorescence intesity (serum of Uterine cervical Ca. patient #19, 1:100 dilution): 48 | Fluorescence intesity (serum of Uterine cervical Ca. patient #20, 1:100 dilution): 104 | Fluorescence intesity (serum of Uterine cervical Ca. patient #21, 1:100 dilution): 22 | Fluorescence intesity (serum of Uterine cervical Ca. patient #22, 1:100 dilution): 27 | Fluorescence intesity (serum of Uterine cervical Ca. patient #23, 1:100 dilution): 56 | Fluorescence intesity (serum of Uterine cervical Ca. patient #24, 1:100 dilution): 1234 | Fluorescence intesity (serum of Uterine cervical Ca. patient #25, 1:100 dilution): 21 | Fluorescence intesity (serum of Uterine cervical Ca. patient #26, 1:100 dilution): 83 | Fluorescence intesity (serum of Uterine cervical Ca. patient #27, 1:100 dilution): 36 | Fluorescence intesity (serum of Uterine cervical Ca. patient #28, 1:100 dilution): 153 | Fluorescence intesity (serum of Uterine cervical Ca. patient #29, 1:100 dilution): 20 | Fluorescence intesity (serum of Uterine cervical Ca. patient #30, 1:100 dilution): 35 | Fluorescence intesity (serum of Uterine cervical Ca. patient #31, 1:100 dilution): 133 | Fluorescence intesity (serum of Uterine cervical Ca. patient #32, 1:100 dilution): 23 | Fluorescence intesity (serum of Uterine cervical Ca. patient #33, 1:100 dilution): 93 | Fluorescence intesity (serum of Uterine cervical Ca. patient #34, 1:100 dilution): 16 | Fluorescence intesity (serum of Uterine cervical Ca. patient #35, 1:100 dilution): 21
